Assay results as given in the supplement of paper PMC9663587.

How the values were obtained:
Experiment in all cases: GRmax, 72 h; higher = less effect;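 also: breast cell lines in 384-well plates, nine doses across a 10^4 range, Dye Drop imaging of viable cells vs DMSO and time-zero plates, GR 0 means no net growth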
BT474 = tested on: BT474
CAL851 = tested on: CAL851
HCC1395 = tested on: HCC1395
HCC1419 = tested on: HCC1419
HCC1806 = tested on: HCC1806
HCC70 = tested on: HCC70
MDAMB175VII = tested on: MDAMB175VII
PDXHCI002 = tested on: PDXHCI002
SKBR3 = tested on: SKBR3
SUM159 = tested on: SUM159
SUM185PE = tested on: SUM185PE
ZR7530 = tested on: ZR7530

Compound | GRmax, 72 h (BT474) [GR] | GRmax, 72 h (CAL851) [GR] | GRmax, 72 h (HCC1395) [GR] | GRmax, 72 h (HCC1419) [GR] | GRmax, 72 h (HCC1806) [GR] | GRmax, 72 h (HCC70) [GR] | GRmax, 72 h (MDAMB175VII) [GR] | GRmax, 72 h (PDXHCI002) [GR] | GRmax, 72 h (SKBR3) [GR] | GRmax, 72 h (SUM159) [GR] | GRmax, 72 h (SUM185PE) [GR] | GRmax, 72 h (ZR7530) [GR]
COc1cc(N2CCN(C)CC2)ccc1Nc1ncc2c(n1)N(C)c1ccccc1C(=O)N2CC(F)(F)F [FMF-03-146-1] | 1.07 | 0.916 | 0.64 | 0.805 | 0.942 | 0.926 | 0.887 | 1.02 | 0.676 | 0.898 | 0.833 | 0.937
CN1CC[C@H](c2c(O)cc(O)c3c(=O)cc(-c4ccccc4Cl)oc23)[C@H](O)C1 [Flavopiridol] (max 1 µM) | -0.751 | -0.223 | -0.644 | -0.263 | -0.568 | -0.811 | -0.309 | -0.143 | -0.656 | -0.051 | 0.155 | -0.662
CC(C)n1nc(-c2ccc3oc(N)nc3c2)c2c(N)ncnc21 [INK128/MLN0128] (max 3.162 µM) | -0.587 | 0.016 | -0.0258 | -0.147 | 0.262 | -0.162 | -0.886 | 0.229 | -0.506 | 0.214 | 0.139 | -0.109
CC(C)NC[C@@H](C(=O)N1CCN(c2ncnc3c2[C@H](C)C[C@H]3O)CC1)c1ccc(Cl)cc1 [Ipatasertib/GDC0068] (max 10 µM) | -0.358 | 0.471 | 0.19 | 0.505 | 0.945 | -0.262 | -0.5 | 1.1 | 0.356 | 0.591 | 0.455 | 0.438
CN(C)C(=O)c1cc2cnc(Nc3ccc(N4CCNCC4)cn3)nc2n1C1CCCC1 [LEE011/Ribociclib] (max 10 µM) | 0.583 | 1.04 | 0.403 | 0.547 | 0.682 | 1.04 | 0.159 | 0.508 | 0.476 | 0.436 | 0.824 | 0.41
CCNC(=O)c1noc(-c2cc(C(C)C)c(O)cc2O)c1-c1ccc(CN2CCOCC2)cc1 [Luminespib/NVP-AUY922] (max 1 µM) | -0.505 | -0.384 | -0.152 | -0.297 | -0.175 | -0.583 | -0.455 | -0.281 | -0.0766 | -0.0637 | -0.103 | 0.1
CCOc1cc2ncc(C#N)c(Nc3ccc(OCc4ccccn4)c(Cl)c3)c2cc1NC(=O)/C=C/CN(C)C [Neratinib/HKI272] (max 3.162 µM) | -0.919 | -0.326 | 0.0167 | -0.501 | -0.0883 | 0.0595 | -0.979 | -0.161 | -0.253 | 0.51 | 0.25 | -0.532
O=C(c1cc(Cc2n[nH]c(=O)c3ccccc23)ccc1F)N1CCN(C(=O)C2CC2)CC1 [Olaparib/AZD2281] (max 10 µM) | 0.64 | 0.387 | 0.0945 | 0.632 | 0.489 | 0.719 | 0.466 | 0.265 | 0.565 | 0.76 | 0.75 | 0.653
CC(=O)O[C@H]1C(=O)[C@@]2(C)[C@H]([C@H](OC(=O)c3ccccc3)[C@]3(O)C[C@H](OC(=O)[C@H](O)[C@@H](NC(=O)c4ccccc4)c4ccccc4)C(C)=C1C3(C)C)[C@]1(OC(C)=O)CO[C@@H]1C[C@@H]2O [Paclitaxel] (max 1 µM) | -0.636 | -0.346 | -0.458 | 0.214 | -0.211 | -0.506 | -0.469 | -0.512 | -0.34 | -0.201 | 0.298 | -0.597
CS(=O)(=O)N1CCN(Cc2cc3nc(-c4cccc5[nH]ncc45)nc(N4CCOCC4)c3s2)CC1 [Pictilisib/GDC0941] (max 10 µM) | -0.828 | -0.0252 | -0.0143 | -0.21 | 0.194 | -0.597 | -0.903 | -0.0101 | -0.127 | 0.2 | 0.0142 | -0.342
O=C1NC(=NCc2cccs2)SC1=Cc1ccc2ncccc2c1 [R0-3306] (max 10 µM) | 0.144 | -0.0866 | -0.235 | 0.246 | -0.112 | -0.204 | -0.0257 | 0.0529 | -0.0433 | 0.101 | 0.827 | 0.065
CNCc1ccc(-c2[nH]c3cc(F)cc4c3c2CCNC4=O)cc1 [Rucaparib] (max 10 µM) | 0.852 | 0.44 | 0.234 | 0.855 | 0.68 | 1.06 | 0.56 | 0.516 | 0.757 | 0.799 | 0.772 | 0.674
CC1(N)CCN(c2cnc(-c3cccc(Cl)c3Cl)c(N)n2)CC1 [SHP099] (max 10 µM) | 0.889 | 0.632 | 0.548 | 0.819 | 0.988 | 0.708 | -0.0734 | 0.63 | 1.02 | 0.821 | 0.457 | 0.715
CN1CCN(CCOc2cc(OC3CCOCC3)c3c(Nc4c(Cl)ccc5c4OCO5)ncnc3c2)CC1 [Saracatinib/AZD0530] (max 10 µM) | -0.548 | 0.116 | 0.12 | -0.115 | 0.221 | -0.172 | -0.935 | 0.0015 | 0.279 | 0.723 | 0.419 | -0.159
Cc1cc(C(C)Nc2ccccc2)c2nc(N3CCOCC3)cc(=O)n2c1 (stereo not given) [TGX221] (max 10 µM) | 0.524 | 0.99 | 0.458 | 0.794 | 0.982 | 0.0049 | 0.886 | 0.855 | 0.75 | 1.02 | 0.509 | 0.925
CN(C)C/C=C/C(=O)Nc1ccc(C(=O)Nc2cccc(Nc3ncc(Cl)c(-c4c[nH]c5ccccc45)n3)c2)cc1 [THZ1] (max 1 µM) | -0.658 | -0.549 | -0.784 | -0.386 | -0.658 | -0.944 | -0.438 | -0.193 | -0.789 | -0.122 | -0.219 | -0.638
CN(C)C/C=C/C(=O)Nc1ccc(C(=O)N2CCC[C@@H](Nc3ncc(Cl)c(-c4c[nH]c5ccccc45)n3)C2)cc1 [THZ531] (max 1 µM) | -0.861 | -0.196 | -0.587 | -0.294 | -0.489 | -0.933 | -0.662 | -0.198 | -0.619 | 0.627 | -0.175 | -0.732
CN(C)C/C=C/C(=O)Nc1ccc(C(=O)Nc2cccc(Nc3cc(-c4c[nH]c5ccccc45)ncn3)c2)cc1 [THZ-P1-2] (max 10 µM) | -0.697 | 0.468 | -0.908 | -0.578 | -0.467 | -0.837 | -0.765 | 0.721 | -0.777 | -0.394 | -0.295 | -0.964
Cc1nc(-c2cn3c(n2)-c2ccc(-c4cnn(C(C)(C)C(N)=O)c4)cc2OCC3)n(C(C)C)n1 [Taselisib/GDC0032] (max 10 µM) | -0.989 | -0.0171 | -0.0177 | -0.405 | -0.0297 | -0.685 | -0.937 | -0.137 | -0.207 | 0.187 | -0.367 | -0.478
O=C1NC(=O)[C@@H](c2cn3c4c(cccc24)CCC3)[C@@H]1c1c[nH]c2ccccc12 [Tivantinib/ARQ197] (max 10 µM) | -0.323 | -0.326 | -0.483 | 0.163 | -0.218 | -0.566 | -0.296 | -0.487 | -0.352 | -0.281 | 0.169 | -0.539
Nc1ccc(-c2ccc3ncc4ccc(=O)n(-c5cccc(C(F)(F)F)c5)c4c3c2)cn1 [Torin2] (max 1 µM) | -0.648 | -0.154 | -0.142 | -0.372 | -0.14 | -0.555 | -0.945 | -0.102 | -0.342 | 0.172 | -0.0832 | -0.0202
CC[C@@H]1C(=O)N(C)c2cnc(Nc3ccc(C(=O)N[C@H]4CC[C@H](N5CCN(CC6CC6)CC5)CC4)cc3OC)nc2N1C(C)C [Volasertib/BI6727] (max 1 µM) | -0.284 | -0.289 | -0.296 | 0.0685 | -0.132 | -0.205 | -0.115 | -0.589 | -0.349 | 0.0326 | 0.28 | -0.42
O=C(CCCCCCC(=O)Nc1ccccc1)NO [Vorinostat] (max 10 µM) | -0.924 | -0.183 | -0.0589 | -0.256 | 0.0178 | -0.476 | -0.867 | -0.583 | -0.632 | 0.181 | 0.222 | -0.318
C=CC(=O)Nc1ccc(C(=O)Nc2[nH]nc3c2CN(C(=O)N[C@H](CN(C)C)c2ccccc2)C3(C)C)cc1 [YKL-5-124] (max 10 µM) | -0.566 | -0.592 | -0.267 | -0.411 | -0.469 | -0.835 | -0.771 | -0.129 | -0.602 | -0.137 | -0.0052 | -0.625
CN1CCN(C(=O)c2ccc3cc(CCNc4ncnc5ccc(C#N)cc45)ccc3c2)CC1 [senexin b] (max 10 µM) | 0.107 | 0.615 | 0.307 | 0.445 | 0.817 | 0.458 | 0.205 | 1.06 | 0.797 | 0.881 | 0.444 | 0.0824
